Data taken from PubChem BioAssay AID330 (DTP/NCI, 2004).
Where “and” joins values, the source holds several entries; their conditions need not be identical. Identical values can stand only once. Toxic doses and inconclusive results are not listed. How the source made its calls: active means survival T/C of 150% or more; inactive means T/C below 125% in these data.

Tested on: P388 leukemia ip, CD2F1 mice, survival T/C
Assay: NCI In Vivo Anticancer Drug Screen. Data for tumor model P388 Leukemia (intraperitoneal) in CD2F1 (CDF1) mice
Conditions: endpoint: median survival time, higher = longer survival
Procedure, shortened: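 Mice carrying the transplanted tumor received test compound or vehicle. Survival was recorded in each group, and the value is the treated-group measurement divided by that of the vehicle-treated control group.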

[1] = dose: 100.0 mg/kg/injection, schedule: Q04DX002 (ip), vehicle: saline with Tween-80
[2] = dose: 200.0 mg/kg/injection, schedule: Q04DX002 (ip), vehicle: saline with Tween-80
[3] = dose: 50.0 mg/kg/injection, schedule: Q01DX009 (ip), vehicle: Klucel (hydroxypropylcellulose) (HPC)
[4] = dose: 25.0 mg/kg/injection, schedule: Q01DX005 (ip), vehicle: Klucel (hydroxypropylcellulose) (HPC)
[5] = dose: 50.0 mg/kg/injection, schedule: Q01DX005 (ip), vehicle: Klucel (hydroxypropylcellulose) (HPC)
[6] = dose: 50.0 mg/kg/injection, schedule: Q01DX009 (ip), vehicle: saline with Tween-80
[7] = dose: 60.0 mg/kg/injection, schedule: Q01DX005 (ip), vehicle: Klucel (hydroxypropylcellulose) (HPC)
[8] = dose: 120.0 mg/kg/injection, schedule: Q01DX005 (ip), vehicle: Klucel (hydroxypropylcellulose) (HPC)
[9] = dose: 240.0 mg/kg/injection, schedule: Q01DX005 (ip), vehicle: Klucel (hydroxypropylcellulose) (HPC)

Measured: T/C

C=C(C1OC2OC(C)(C)OC2C1OC)P(=O)(OC(C)C)OC(C)C (configuration not stated)
inactive: [1] 98 % of control | [2] 98 % of control

O=C(Nc1ccc(Cl)c(C(F)(F)F)c1)Nc1c(Oc2ccc(Cl)c(Cl)c2)ccc(Cl)c1S(=O)(=O)O
inactive: dose: 25.0 mg/kg/injection, schedule: Q01DX009 (ip), vehicle: saline 118 % of control | dose: 50.0 mg/kg/injection, schedule: Q01DX009 (ip), vehicle: saline 118 % of control | dose: 100.0 mg/kg/injection, schedule: Q01DX009 (ip), vehicle: saline 118 % of control

CCCCNC(=O)OCC1=C(COC(=O)NCCCC)C2OC1C(C(=O)OC)=C2C(=O)OC
inactive: dose: 3.13 mg/kg/injection, schedule: Q01DX009 (ip), vehicle: distilled water + Tween-80 109 % of control | dose: 6.25 mg/kg/injection, schedule: Q01DX009 (ip), vehicle: distilled water + Tween-80 101 % of control and 108 % of control and 113 % of control | dose: 50.0 mg/kg/injection, schedule: Q01DX009 (ip), vehicle: distilled water + Tween-80 104 % of control and 108 % of control | dose: 100.0 mg/kg/injection, schedule: Q01DX009 (ip), vehicle: distilled water + Tween-80 95 % of control

CCCCCCCCCCCCCCCC(=O)N(C(C)CCCN(CC)CC)C(C)CCCN(CC)CC (configuration not stated)
inactive: dose: 1.56 mg/kg/injection, schedule: Q01DX009 (ip), vehicle: water 98 % of control | dose: 3.13 mg/kg/injection, schedule: Q01DX009 (ip), vehicle: water 100 % of control | dose: 6.25 mg/kg/injection, schedule: Q01DX009 (ip), vehicle: water 99 % of control | dose: 12.5 mg/kg/injection, schedule: Q01DX009 (ip), vehicle: water 92 % of control

S=C(Cl)N1CCN(C(=S)Cl)CC1
inactive: dose: 12.5 mg/kg/injection, schedule: Q01DX009 (ip), vehicle: Klucel (hydroxypropylcellulose) (HPC) 104 % of control | dose: 25.0 mg/kg/injection, schedule: Q01DX009 (ip), vehicle: Klucel (hydroxypropylcellulose) (HPC) 112 % of control | [3] 110 % of control and 93 % of control

CC12CC3CC(C)(C1)CC(SC(=N)N)(C3)C2
inactive: dose: 7.5 mg/kg/injection, schedule: Q01DX005 (ip), vehicle: saline with Tween-80 105 % of control | dose: 15.0 mg/kg/injection, schedule: Q01DX005 (ip), vehicle: saline with Tween-80 104 % of control | dose: 30.0 mg/kg/injection, schedule: Q01DX005 (ip), vehicle: saline with Tween-80 106 % of control

O=C(O)CC(Nc1ccc([N+](=O)[O-])cc1[N+](=O)[O-])C(=O)O (configuration not stated)
inactive: dose: 50.0 mg/kg/injection, schedule: Q01DX005 (ip), vehicle: saline 100 % of control | dose: 100.0 mg/kg/injection, schedule: Q01DX005 (ip), vehicle: saline 106 % of control | dose: 200.0 mg/kg/injection, schedule: Q01DX005 (ip), vehicle: saline 103 % of control

COC(=O)[C@H]1[C@H]2C[C@@H]3c4[nH]c5cc(OC)ccc5c4CCN3C[C@H]2C[C@@H](OC(=O)c2cccc(N(C)C)c2)[C@@H]1OC
inactive: dose: 12.5 mg/kg/injection, schedule: Q01DX005 (ip), vehicle: Klucel (hydroxypropylcellulose) (HPC) 95 % of control | [4] 94 % of control | [5] 116 % of control | dose: 100.0 mg/kg/injection, schedule: Q01DX005 (ip), vehicle: Klucel (hydroxypropylcellulose) (HPC) 86 % of control

CC(C)COC(=O)C(CC(C)C)NC(=O)C(C)O (configuration not stated)
inactive: dose: 50.0 mg/kg/injection, schedule: Q01DX001 (ip), vehicle: suspension in saline 103 % of control | dose: 60.0 mg/kg/injection, schedule: Q01DX005 (ip), vehicle: saline with Tween-80 97 % of control | dose: 100.0 mg/kg/injection, schedule: Q01DX001 (ip), vehicle: suspension in saline 92 % of control | dose: 120.0 mg/kg/injection, schedule: Q01DX005 (ip), vehicle: saline with Tween-80 101 % of control | dose: 200.0 mg/kg/injection, schedule: Q01DX001 (ip), vehicle: suspension in saline 103 % of control | dose: 240.0 mg/kg/injection, schedule: Q01DX005 (ip), vehicle: saline with Tween-80 100 % of control | dose: 400.0 mg/kg/injection, schedule: Q01DX001 (ip), vehicle: suspension in saline 104 % of control

O=C(CNNC(=O)c1ccncc1)Nc1ccc(S(=O)(=O)c2ccc(NC(=O)CNNC(=O)c3ccncc3)cc2)cc1
inactive: [4] 89 % of control | [5] 90 % of control and 91 % of control | dose: 200.0 mg/kg/injection, schedule: Q01DX005 (ip), vehicle: Klucel (hydroxypropylcellulose) (HPC) 86 % of control

CCCCCCCCCCCCCCCC(=O)N(CCCN)CCCN(CCCN)C(=O)CCCCCCCCCCCCCCC
inactive: dose: 12.5 mg/kg/injection, schedule: Q01DX009 (ip), vehicle: saline with Tween-80 86 % of control | dose: 25.0 mg/kg/injection, schedule: Q01DX009 (ip), vehicle: saline with Tween-80 109 % of control | [6] 100 % of control

CN(C)Cc1cc(CN(C)C)c(O)c(CN(C)C)c1
inactive: [6] 88 % of control | dose: 100.0 mg/kg/injection, schedule: Q01DX009 (ip), vehicle: saline with Tween-80 93 % of control

CC1C[P+](c2ccccc2)(c2ccccc2)Cc2ccccc21 (configuration not stated)
inactive: dose: 6.25 mg/kg/injection, schedule: Q01DX001 (ip), vehicle: saline 101 % of control and 105 % of control and 108 % of control | dose: 12.5 mg/kg/injection, schedule: Q01DX001 (ip), vehicle: saline 101 % of control and 117 % of control

COc1cc2c(cc1OC)[C@@]1(C[C@H]1CO)OCC2
inactive: dose: 100.0 mg/kg/injection, schedule: Q04DX002 (ip), vehicle: Klucel (hydroxypropylcellulose) (HPC) 100 % of control | dose: 200.0 mg/kg/injection, schedule: Q04DX002 (ip), vehicle: Klucel (hydroxypropylcellulose) (HPC) 98 % of control | dose: 400.0 mg/kg/injection, schedule: Q04DX002 (ip), vehicle: Klucel (hydroxypropylcellulose) (HPC) 95 % of control

CC(=O)NC(CNC(C)C)C(=O)O (configuration not stated)
inactive: dose: 50.0 mg/kg/injection, schedule: Q01DX001 (ip), vehicle: Klucel (hydroxypropylcellulose) (HPC) 102 % of control | dose: 100.0 mg/kg/injection, schedule: Q01DX001 (ip), vehicle: Klucel (hydroxypropylcellulose) (HPC) 106 % of control | dose: 200.0 mg/kg/injection, schedule: Q01DX001 (ip), vehicle: Klucel (hydroxypropylcellulose) (HPC) 98 % of control

Cc1nc2scc(-c3ccccc3)n2c(=O)c1CN1CCCCC1
inactive: dose: 37.5 mg/kg/injection, schedule: Q04DX002 (ip), vehicle: Klucel (hydroxypropylcellulose) (HPC) 103 % of control | dose: 75.0 mg/kg/injection, schedule: Q04DX002 (ip), vehicle: Klucel (hydroxypropylcellulose) (HPC) 106 % of control | dose: 150.0 mg/kg/injection, schedule: Q04DX002 (ip), vehicle: Klucel (hydroxypropylcellulose) (HPC) 95 % of control

CCCCCCCCCCCC(=O)c1c(O)c2ccccc2oc1=O
inactive: dose: 50.0 mg/kg/injection, schedule: Q01DX005 (ip), vehicle: saline with Tween-80 95 % of control | dose: 100.0 mg/kg/injection, schedule: Q01DX005 (ip), vehicle: saline with Tween-80 94 % of control

CN(C)c1ccc(NC(=S)Nc2ccccc2C(F)(F)F)cc1
inactive: [3] 100 % of control | dose: 100.0 mg/kg/injection, schedule: Q01DX009 (ip), vehicle: Klucel (hydroxypropylcellulose) (HPC) 100 % of control | dose: 200.0 mg/kg/injection, schedule: Q01DX009 (ip), vehicle: Klucel (hydroxypropylcellulose) (HPC) 96 % of control

COc1ccc(/C=N\N=C(/[O-])c2ccc(Cl)cc2)cc1.COc1ccc(/C=N\N=C(/[O-])c2ccc(Cl)cc2)cc1.[Mn+2].[OH3+].[OH3+]
inactive: dose: 50.0 mg/kg/injection, schedule: Q04DX002 (ip), vehicle: saline with Tween-80 102 % of control | [1] 102 % of control | [2] 104 % of control

FC(F)(F)C1OC2CCCN2C2=C1CCc1ccccc12 (configuration not stated)
inactive: dose: 100.0 mg/kg/injection, schedule: Q04DX002 (ip), vehicle: saline 108 % of control | dose: 200.0 mg/kg/injection, schedule: Q04DX002 (ip), vehicle: saline 101 % of control | dose: 400.0 mg/kg/injection, schedule: Q04DX002 (ip), vehicle: saline 100 % of control

Nc1nc2c(c(=O)[nH]1)NC(CN(C(=O)CCCl)c1ccc(C(=O)NC(CCC(=O)O)C(=O)O)cc1)CN2 (configuration not stated)
inactive: dose: 50.0 mg/kg/injection, schedule: Q01DX001 (ip), vehicle: alkali diluted with saline 101 % of control | dose: 100.0 mg/kg/injection, schedule: Q01DX001 (ip), vehicle: alkali diluted with saline 104 % of control | dose: 200.0 mg/kg/injection, schedule: Q01DX001 (ip), vehicle: alkali diluted with saline 101 % of control

CN(N=O)N1C(=O)SCC(c2ccccc2)(c2ccccc2)C1=O
inactive: [7] 97 % of control | [8] 90 % of control | [9] 88 % of control

CC(=O)OC1CC(c2ccccc2)=NO1 (configuration not stated)
inactive: [7] 106 % of control | [8] 95 % of control | [9] 103 % of control
